Experimental data taken from patent US8466176B2 (priority 2008, dated 2013).

Experiment: logP(HCOOH) reported with HPLC/MS
Settings: HCOOH (formic acid), logP(HCOOH), HPLC/MS
Work on `Cn1nnnc1C(=NOCc1cccc(C=NO)n1)c1ccccc1` [Example 177, N-({6-[(hydroxyimino)methyl]pyridin-2-yl}methoxy)-1-(1-methyl-1H-tetrazol-5-yl)-1-phenylmethanimine] yielded a chromatographic logP of 2.16.

Same assay, conditions: HPLC, logP(HCOOH), HPLC/MS
`Cc1nnnn1C(=NOCc1csc(Br)n1)c1ccccc1` [Example 145, N-[(2-bromo-1,3-thiazol-4-yl)methoxy]-1-(5-methyl-1H-tetrazol-1-yl)-1-phenylmethanimine] showed a chromatographic logP of 3.15. For `Cc1sc(Br)nc1CON=C(c1ccccc1)c1nnnn1C` [Example 175, N-[(2-bromo-5-methyl-1,3-thiazol-4-yl)methoxy]-1-(1-methyl-1H-tetrazol-5-yl)-1-phenylmethanimine], the chromatographic logP was 3.37.

Same assay, conditions: formic acid (HCOOH), logP(HCOOH), HPLC/MS
With `Cn1nnnc1C(=NOCc1csc(NCCC2CCCCC2)n1)c1ccccc1` [Example 161, N-(2-cyclohexylethyl)-4-[({[(1-methyl-1H-tetrazol-5-yl)(phenyl)methylene]amino}oxy)methyl]-1,3-thiazol-2-amine] the chromatographic logP was 3.62.

Same assay, conditions: logP(HCOOH), HPLC/MS
Molecule `Cc1nnnn1C(=NOCc1csc(C#CC2CC2)n1)c1ccccc1` [Example 159] has a chromatographic logP of 3.65. For `Cn1nnnc1C(=NOCc1cccc(C=O)n1)c1ccccc1` [Example 174, 6-[({[(1-methyl-1H-tetrazol-5-yl)(phenyl)methylene]amino}oxy)methyl]pyridine-2-carbaldehyde], the chromatographic logP was 2.54.

Same assay, conditions: method [a]: HPLC on reversed phase columns, pH 2.3 with 0.1% phosphoric acid and acetonitrile as eluent
With `Cn1nnnc1C(=NOCc1cccc(NC/C=C/C#CC(C)(C)C)n1)c1ccccc1` [Example 158] the log p was 3.25^[a]. For `Cn1nnnc1C(=NOCc1cccc(C(O)CCc2ccccc2)n1)c1ccccc1` (stereo not shown) [Example 176], the log p was 3.35^[a]. With `Cn1nnnc1C(=NOCc1cccc(NCC2CCC2)n1)c1ccccc1` [Example 178] the log p was 1.98^[a]. For `Cn1nnnc1C(=NOCc1cccc(NCC2CC2(F)F)n1)c1ccccc1` (stereo not shown) [Example 179], the log p was 2.17^[a]. With `Cn1nnnc1C(=NOCc1cccc(NCCCCC2CCCCC2)n1)c1ccccc1` [Example 180] the log p was 3.55^[a]. In the case of `CCOCCOCCNc1cccc(CON=C(c2ccccc2)c2nnnn2C)n1` [Example 197], the log p is reported as 1.7^[a]. For `Cn1nnnc1C(=NOCc1cccc(NCCCC2CCCCC2)n1)c1ccccc1` [Example 200], the log p was 3.17^[a]. For `Cn1nnnc1C(=NOCc1cccc(C=NN=CC2CC=CCC2)n1)c1ccccc1` (stereo not shown) [Example 201], the log p was 4.16^[a].

Same assay, conditions: method [b]: LC-MS, pH 2.7 with 0.1% formic acid in water and acetonitrile (0.1% formic acid), linear gradient 10% to 95% acetonitrile
With `Cn1nnnc1C(=NOCc1csc(Br)n1)c1cccc(F)c1` [Example 146] the log p was 3.23^[b]. With `Cn1nnnc1C(=NOCc1csc(C#CCC2CCCCC2)n1)c1cccc(F)c1` [Example 147] the log p was 5.42^[b]. With `Cn1nnnc1C(=NOCc1csc(C#CC2CC2)n1)c1cccc(F)c1` [Example 148] the log p was 3.71^[b]. For `CCCCC#Cc1nc(CON=C(c2cccc(F)c2)c2nnnn2C)cs1` [Example 149], the log p was 4.51^[b]. For `Cn1nnnc1C(=NOCc1csc(C#CCCCc2ccccc2)n1)c1cccc(F)c1` [Example 150], the log p was 4.89^[b]. In the case of `CCCC#Cc1nc(CON=C(c2cccc(F)c2)c2nnnn2C)cs1` [Example 151], the log p is reported as 4.09^[b]. For `CCCCCC#Cc1nc(CON=C(c2cccc(F)c2)c2nnnn2C)cs1` [Example 152], the log p was 4.94^[b]. For `Cn1nnnc1C(=NOCc1csc(C#CCC2CCCC2)n1)c1cccc(F)c1` [Example 153], the log p was 5.03^[b]. In the case of `Cn1nnnc1C(=NOCc1csc(C#CCCCC#N)n1)c1cccc(F)c1` [Example 154], the log p is reported as 3.09^[b]. With `Cn1nnnc1C(=NOCc1csc(C#CCCc2ccccc2)n1)c1cccc(F)c1` [Example 156] the log p was 4.49^[b]. For `C#Cc1nc(CON=C(c2cccc(F)c2)c2nnnn2C)cs1` [Example 157], the log p was 2.88^[b]. In the case of `Cn1nnnc1C(=NOCc1csc(NCC2CC2)n1)c1ccccc1` [Example 162], the log p is reported as 2.26^[b]. In the case of `CCCCC#Cc1nc(CON=C(c2ccccc2)n2nnnc2C)cs1` [Example 164], the log p is reported as 4.49^[b]. In the case of `CCCC#Cc1nc(CON=C(c2ccccc2)n2nnnc2C)cs1` [Example 165], the log p is reported as 4.04^[b]. In the case of `Cc1nnnn1C(=NOCc1csc(C#CCCCc2ccccc2)n1)c1ccccc1` [Example 166], the log p is reported as 4.84^[b]. With `CCCCCC#Cc1nc(CON=C(c2ccccc2)n2nnnc2C)cs1` [Example 167] the log p was 4.92^[b]. With `Cc1nnnn1C(=NOCc1csc(C#CCCc2ccccc2)n1)c1ccccc1` [Example 168] the log p was 4.44^[b]. With `Cc1nnnn1C(=NOCc1csc(C#CCC2CCCCC2)n1)c1ccccc1` [Example 169] the log p was 5.41^[b]. In the case of `Cc1nnnn1C(=NOCc1csc(C#CCC2CCCC2)n1)c1ccccc1` [Example 170], the log p is reported as 4.97^[b]. In the case of `Cc1nnnn1C(=NOCc1csc(C#CCCCC#N)n1)c1ccccc1` [Example 171], the log p is reported as 3.02^[b]. For `CCCC#Cc1nc(CON=C(c2ccccc2)c2nnnn2C)c(C)s1` [Example 182], the log p was 4.24^[b]. With `CCCCC#Cc1nc(CON=C(c2ccccc2)c2nnnn2C)c(C)s1` [Example 183] the log p was 3.37^[b]. For `Cc1sc(C#CCC2CCCCC2)nc1CON=C(c1ccccc1)c1nnnn1C` [Example 184], the log p was 5.62^[b]. In the case of `Cc1sc(C#CCC2CCCC2)nc1CON=C(c1ccccc1)c1nnnn1C` [Example 185], the log p is reported as 5.2^[b]. For `Cc1sc(C#CCCc2ccccc2)nc1CON=C(c1ccccc1)c1nnnn1C` [Example 187], the log p was 4.65^[b]. In the case of `CCCC(C)C#Cc1nc(CON=C(c2ccccc2)c2nnnn2C)c(C)s1` (stereo not shown) [Example 188], the log p is reported as 5.06^[b]. With `Cc1sc(C#CC(C)C)nc1CON=C(c1ccccc1)c1nnnn1C` [Example 189] the log p was 4.21^[b]. With `Cc1sc(C#CC2CCCC2)nc1CON=C(c1ccccc1)c1nnnn1C` [Example 190] the log p was 4.75^[b]. With `Cn1nnnc1C(=NOCc1csc(C#Cc2ccc(C#N)cc2)n1)c1ccccc1` [Example 191] the log p was 3.76^[b]. In the case of `COc1ccc(C#Cc2nc(CON=C(c3ccccc3)c3nnnn3C)cs2)cc1` [Example 192], the log p is reported as 4.14^[b]. In the case of `Cn1nnnc1C(=NOCc1csc(C#CCCCCl)n1)c1ccccc1` [Example 193], the log p is reported as 3.8^[b]. For `Cn1nnnc1C(=NOCc1csc(C#Cc2ccc3ccccc3c2)n1)c1ccccc1` [Example 194], the log p was 4.92^[b]. With `COC(=O)CCCC#Cc1nc(CON=C(c2ccccc2)c2nnnn2C)cs1` [Example 195] the log p was 3.33^[b]. In the case of `COC(C)(C)C#Cc1nc(CON=C(c2ccccc2)c2nnnn2C)cs1` [Example 196], the log p is reported as 3.53^[b]. With `Cn1nnnc1C(=NOCc1csc(C#CCCO)n1)c1ccccc1` [Example 198] the log p was 2.3^[b]. With `CCSCC#Cc1nc(CON=C(c2ccccc2)c2nnnn2C)cs1` [Example 199] the log p was 3.78^[b]. For `CCCCc1ccc(C#Cc2nc(CON=C(c3ccccc3)c3nnnn3C)cs2)cc1` [Example 202], the log p was 5.82^[b]. In the case of `Cn1nnnc1C(=NOCc1cccc(NCCOC2CCCCC2)n1)c1ccccc1` [Example 203], the log p is reported as 2.35^[b]. For `Cn1nnnc1C(=NOCc1cccc(NCCOC2CCCC2)n1)c1ccccc1` [Example 204], the log p was 2.14^[b]. With `Cn1nnnc1C(=NOCc1cccc(NCC2CC2(Cl)Cl)n1)c1ccccc1` (stereo not shown) [Example 205] the log p was 2.75^[b]. In the case of `Cn1nnnc1C(=NOCc1cccc(C#Cc2cccs2)n1)c1ccccc1` [Example 206], the log p is reported as 3.94^[b]. With `Cn1nnnc1C(=NOCc1cccc(C#Cc2ccsc2)n1)c1ccccc1` [Example 207] the log p was 3.83^[b]. In the case of `Cn1nnnc1C(=NOCc1cccc(C#Cc2ccc3ccccc3c2)n1)c1ccccc1` [Example 208], the log p is reported as 4.78^[b]. In the case of `Cn1nnnc1C(=NOCc1cccc(C#CCCC#N)n1)c1ccccc1` [Example 209], the log p is reported as 2.7^[b]. In the case of `Cn1nnnc1C(=NOCc1cccc(C#CCCc2ccccc2)n1)c1ccccc1` [Example 210], the log p is reported as 4.29^[b]. In the case of `Cn1nnnc1C(=NOCc1cccc(C#CCCCCCl)n1)c1ccccc1` [Example 211], the log p is reported as 3.99^[b]. In the case of `Cn1nnnc1C(=NOCc1cccc(C#CCCCCl)n1)c1ccccc1` [Example 212], the log p is reported as 3.71^[b]. For `Cn1nnnc1C(=NOCc1cccc(C#CCC2CCCCC2)n1)c1ccccc1` [Example 213], the log p was 5.17^[b]. In the case of `CCCCCC#Cc1cccc(CON=C(c2ccccc2)c2nnnn2C)n1` [Example 214], the log p is reported as 4.67^[b]. With `Cn1nnnc1C(=NOCc1cccc(C#Cc2ccccc2Cl)n1)c1ccccc1` [Example 215] the log p was 4.36^[b]. With `Cn1nnnc1C(=NOCc1cccc(C#Cc2ccc(-c3ccccc3)cc2)n1)c1ccccc1` [Example 216] the log p was 5.11^[b]. For `Cn1nnnc1C(=NOCc1cccc(C#Cc2ccc(C(F)(F)F)cc2)n1)c1ccccc1` [Example 217], the log p was 4.65^[b]. For `Cn1nnnc1C(=NOCc1cccc(C#Cc2cccc(C(F)(F)F)c2)n1)c1ccccc1` [Example 218], the log p was 4.62^[b]. For `Cn1nnnc1C(=NOCc1cccc(C#Cc2ccccc2C(F)(F)F)n1)c1ccccc1` [Example 219], the log p was 4.44^[b]. With `Cn1nnnc1C(=NOCc1cccc(C#Cc2ccc(OC(F)(F)F)cc2)n1)c1ccccc1` [Example 220] the log p was 4.75^[b]. With `COc1cccc(C#Cc2cccc(CON=C(c3ccccc3)c3nnnn3C)n2)c1` [Example 221] the log p was 4.09^[b].

Same assay, conditions: method [c]: LC-MS, pH 7.8 with 0.001 molar ammonium hydrogen carbonate solution in water, linear gradient 10% to 95% acetonitrile
For `CCCCC1COC(c2cccc(CON=C(c3ccccc3)c3nnnn3C)n2)O1` (stereo not shown) [Example 172], the log p was 4.34^[c]. For `Cn1nnnc1C(=NOCc1cccc(C2OCC(COCc3ccccc3)O2)n1)c1ccccc1` (stereo not shown) [Example 173], the log p was 3.89^[c].

Same assay, conditions: reversed phase HPLC column, pH 2.7, log p, method [b]: LC-MS, pH 2.7 with 0.1% formic acid in water and acetonitrile (0.1% formic acid), linear gradient 10% to 95% acetonitrile
For `Cc1nnnn1C(=NOCc1csc(Br)n1)c1ccccc1` [Example 145, N-[(2-bromo-1,3-thiazol-4-yl)methoxy]-1-(5-methyl-1H-tetrazol-1-yl)-1-phenylmethanimine], the chromatographic logP was 3.15. For `Cc1nnnn1C(=NOCc1csc(C#CC2CC2)n1)c1ccccc1` [Example 159], the chromatographic logP was 3.65. In the case of `Cn1nnnc1C(=NOCc1csc(NCCC2CCCCC2)n1)c1ccccc1` [Example 161, N-(2-cyclohexylethyl)-4-[({[(1-methyl-1H-tetrazol-5-yl)(phenyl)methylene]amino}oxy)methyl]-1,3-thiazol-2-amine], the chromatographic logP is reported as 3.62. Work on `Cc1sc(Br)nc1CON=C(c1ccccc1)c1nnnn1C` [Example 175, N-[(2-bromo-5-methyl-1,3-thiazol-4-yl)methoxy]-1-(1-methyl-1H-tetrazol-5-yl)-1-phenylmethanimine] yielded a chromatographic logP of 3.37. In the case of `Cc1sc(C#CC2CC2)nc1CON=C(c1ccccc1)c1nnnn1C` [Example 181], the chromatographic logP is reported as 3.83.

Same assay, conditions: reversed phase HPLC columns, pH 2.3, log p, method [a]: HPLC on reversed phase columns, pH 2.3 with 0.1% phosphoric acid and acetonitrile as eluent
With `Cn1nnnc1C(=NOCc1cccc(C=O)n1)c1ccccc1` [Example 174, 6-[({[(1-methyl-1H-tetrazol-5-yl)(phenyl)methylene]amino}oxy)methyl]pyridine-2-carbaldehyde] the chromatographic logP was 2.54. Molecule `Cn1nnnc1C(=NOCc1cccc(C=NO)n1)c1ccccc1` [Example 177, N-({6-[(hydroxyimino)methyl]pyridin-2-yl}methoxy)-1-(1-methyl-1H-tetrazol-5-yl)-1-phenylmethanimine] has a chromatographic logP of 2.16.
